Reference: ChEMBL document CHEMBL3526061, “Glucuronidation of edaravone by human liver and kidney microsomes: biphasic kinetics and identification of UGT1A9 as the major UDP-glucuronosyltransferase isoform” (Drug Metab Dispos, 2012)

What was measured:
Type in all cases: ADME
[1] = biological target: T1, UDP-glucuronosyltransferase 1A9 (Homo sapiens, UniProt O60656); test: Activity of human recombinant UGT1A9 expressed in insect cells assessed as intrinsic clearance for enzyme mediated glucuronidation per mg protein by LC-MS/MS method
T1 sequence (O60656 whole entry): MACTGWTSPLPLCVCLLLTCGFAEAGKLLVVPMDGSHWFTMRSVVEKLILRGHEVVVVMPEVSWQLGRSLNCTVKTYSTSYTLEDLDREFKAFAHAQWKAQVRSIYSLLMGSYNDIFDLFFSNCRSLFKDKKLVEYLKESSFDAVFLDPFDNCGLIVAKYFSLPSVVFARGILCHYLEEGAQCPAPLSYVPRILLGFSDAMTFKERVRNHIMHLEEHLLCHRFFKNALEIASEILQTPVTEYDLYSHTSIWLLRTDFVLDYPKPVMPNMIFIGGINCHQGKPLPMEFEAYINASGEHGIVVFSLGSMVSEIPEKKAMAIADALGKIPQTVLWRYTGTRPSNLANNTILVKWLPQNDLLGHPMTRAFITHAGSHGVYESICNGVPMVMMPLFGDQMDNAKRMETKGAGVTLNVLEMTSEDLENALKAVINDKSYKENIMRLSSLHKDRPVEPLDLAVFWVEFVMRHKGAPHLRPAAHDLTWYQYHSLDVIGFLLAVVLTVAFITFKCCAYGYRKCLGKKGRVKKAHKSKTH

[2] = biological target: T2, UDP-glucuronosyltransferase 1A1 (Homo sapiens, UniProt P22309); test: Activity of human recombinant UGT1A1 expressed in insect cells assessed as enzyme mediated glucuronidation in presence of 10 to 50 uM estradiol by LC-MS/MS method
T2 sequence (P22309 whole entry): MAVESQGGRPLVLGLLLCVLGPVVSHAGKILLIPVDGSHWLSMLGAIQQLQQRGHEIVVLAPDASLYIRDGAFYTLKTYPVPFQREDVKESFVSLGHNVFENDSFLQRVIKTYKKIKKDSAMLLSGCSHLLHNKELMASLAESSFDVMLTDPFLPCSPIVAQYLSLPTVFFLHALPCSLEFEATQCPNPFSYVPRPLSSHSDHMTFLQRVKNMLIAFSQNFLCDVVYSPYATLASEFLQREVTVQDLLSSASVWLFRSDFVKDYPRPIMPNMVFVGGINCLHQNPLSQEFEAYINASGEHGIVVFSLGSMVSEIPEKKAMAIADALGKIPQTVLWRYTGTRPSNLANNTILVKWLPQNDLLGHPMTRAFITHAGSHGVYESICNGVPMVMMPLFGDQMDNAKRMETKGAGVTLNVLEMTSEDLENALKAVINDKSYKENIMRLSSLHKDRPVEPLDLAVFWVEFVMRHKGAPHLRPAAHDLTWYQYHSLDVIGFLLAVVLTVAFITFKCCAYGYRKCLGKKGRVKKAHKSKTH

[3] = biological target: T1, UDP-glucuronosyltransferase 1A9; test: Activity of human recombinant UGT1A9 expressed in insect cells assessed as enzyme mediated glucuronidation in presence of 100 to 1000 uM propofol by LC-MS/MS method
[4] = Drug metabolism in human liver microsomes assessed as drug glucuronidation in absence of BSA by LC-MS/MS method
[5] = Drug metabolism in human liver microsomes assessed as drug glucuronidation in presence of BSA by LC-MS/MS method
[6] = biological target: T3, UDP-glucuronosyltransferase 1A7 (Homo sapiens, UniProt Q9HAW7); test: Activity of human recombinant UGT1A7 expressed in insect cells assessed as enzyme mediated glucuronidation at 500 uM by LC-MS/MS method
T3 sequence (Q9HAW7 whole entry): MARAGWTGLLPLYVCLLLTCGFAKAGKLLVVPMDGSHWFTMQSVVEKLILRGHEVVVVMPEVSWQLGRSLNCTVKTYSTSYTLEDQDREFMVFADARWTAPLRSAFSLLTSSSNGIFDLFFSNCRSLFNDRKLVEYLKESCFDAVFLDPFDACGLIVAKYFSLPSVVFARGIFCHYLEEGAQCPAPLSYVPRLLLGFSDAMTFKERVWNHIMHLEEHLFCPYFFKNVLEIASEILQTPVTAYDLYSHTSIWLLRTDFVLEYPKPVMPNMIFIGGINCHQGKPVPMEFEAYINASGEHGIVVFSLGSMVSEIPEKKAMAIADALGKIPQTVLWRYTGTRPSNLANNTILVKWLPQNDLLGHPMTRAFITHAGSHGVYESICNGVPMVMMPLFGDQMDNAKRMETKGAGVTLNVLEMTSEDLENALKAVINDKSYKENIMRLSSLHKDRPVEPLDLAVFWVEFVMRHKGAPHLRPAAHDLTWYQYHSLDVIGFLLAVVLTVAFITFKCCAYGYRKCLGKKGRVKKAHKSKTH

[7] = biological target: T4, UDP-glucuronosyltransferase 2B7 (Homo sapiens, UniProt P16662); test: Activity of human recombinant UGT2B7 expressed in insect cells assessed as enzyme mediated glucuronidation at 500 uM by LC-MS/MS method
T4 sequence (P16662 whole entry): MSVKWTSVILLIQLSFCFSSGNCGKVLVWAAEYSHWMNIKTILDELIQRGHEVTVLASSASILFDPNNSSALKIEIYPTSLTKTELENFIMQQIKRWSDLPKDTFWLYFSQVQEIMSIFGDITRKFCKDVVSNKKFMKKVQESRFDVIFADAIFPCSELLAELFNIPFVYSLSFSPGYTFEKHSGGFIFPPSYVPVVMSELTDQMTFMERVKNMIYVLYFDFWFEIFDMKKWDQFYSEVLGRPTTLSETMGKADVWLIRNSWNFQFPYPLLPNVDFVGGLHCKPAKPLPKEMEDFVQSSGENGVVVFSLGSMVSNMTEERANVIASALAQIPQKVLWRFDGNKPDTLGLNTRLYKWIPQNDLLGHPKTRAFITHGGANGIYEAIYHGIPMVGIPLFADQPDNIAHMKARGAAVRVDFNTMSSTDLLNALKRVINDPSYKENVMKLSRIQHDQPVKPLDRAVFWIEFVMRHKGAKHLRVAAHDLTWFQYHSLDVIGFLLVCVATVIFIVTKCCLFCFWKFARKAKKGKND

CL(high) [1]: 42.4 µL/min/mg
CL(low) [1]: 0.8 µL/min/mg
Drug metabolism [2]: metabolite_not_detected
Drug metabolism [3]: metabolite_not_detected
Km ([4]; read-out: KmH): 36.7 µM
Km ([4]; read-out: KmL): 5880 µM
Km ([5]; read-out: KmH): 8.4 µM
Km ([5]; read-out: KmL): 1350 µM
Drug metabolism [6]: metabolite_detected
Drug metabolism [7]: metabolite_detected
Structure (SMILES): CC1=NN(c2ccccc2)C(=O)C1 [EDARAVONE]
